Assay results published in patent publication US20210015850A1, “COMPOSITION FOR IMPROVING INTESTINAL BARRIER FUNCTION” (SUNTORY HOLDINGS LIMITED, priority 2017, published 2021).
Where two headings read alike, the source gives them in different places.

Tested on: Caco-2 cells
Test: Intestinal barrier function improvement: suppression of cytokine-induced TEER reduction in Caco-2 monolayer
Assay type: cell-based, human
Details: for inhibition at 10 µM: Homo sapiens, read-out: TEER reduction suppression ratio (%); for Relative value of TEER reduction suppression ratio of gallate type compound (non-gallate type compound taken as 1): 10 μM, gallate vs non-gallate in the same evaluation
Procedure: Caco-2 cells were cultured for three weeks at 37° C. in Transwell (manufactured by Millicell Corporation) using DMEM (Dulbecco's modified Eagle's medium). A medium was removed from a plate of cultured Caco-2 cells, and the well was washed 3 times with serum-free DMEM. The well was filled with the medium. Then, the transepithelial electrical resistance (TEER) of Caco-2 monolayer cells was measured by Millicell-ERS (manufactured by Millipore Corporation). Cells (TEER≥1000 Ω·cm^2) determined that a sufficient tight junction was formed were selected, and used for the next screening. Then, to test solutions (media) on both apical and basolateral membrane sides, a sample, TNFα (40 ng/mL), IL-1β (20 ng/mL), and IFNγ (10 ng/mL) were added, followed by cultivating for 48 hours. The sample was dissolved in dimethyl sulfoxide (DMSO), and the solution was then added to the test solutions. In this case, a well to which inflammatory cytokine (TNFα, IL-1β, and IFNγ) and the sample were not added was provided as normal. A well to which inflammatory cytokine was added and the sample was not added was provided as control. After the cultivation, TEER was measured again, to evaluate whether the sample suppressed the reduction (decrease) of TEER due to the inflammatory cytokine.
The TEER reduction suppression ratio (%) due to the sample was determined according to the following formula from the TEER values of the well to which the sample was added, normal, and control.
TEER reduction suppression ratio (%)−100×((TEER of well to which sample is added)−(TEER of control))/((TEER of normal)−(TEER of control))
In this evaluation system, as the TEER reduction suppression ratio (%) is higher, an intestinal barrier function improvement effect is higher.
The intestinal barrier function improvement action was evaluated by the same method (the method for evaluating intestinal barrier function improvement action described in Example 4) as that in Example 4. In Example 5, the sample was added into the test solution so that a sample concentration was set to 10 μmol/L. The TEER reduction suppression ratio (%) of the sample was obtained according to the formula from the TEER values of a well to which the sample was added, normal, and control in the same manner as in Example 4.

[1] = Caco-2, 48 h, sample 10 μM (10 μmol/L), Example 5, Table 4
[2] = Caco-2, sample 10 μM, TNFα 40 ng/mL, IL-1β 20 ng/mL, IFNγ 10 ng/mL, 48 hours, Table 2
[3] = sample 10 μM (10 μmol/L), Example 5, Table 4

With `O=C(OC[C@H]1O[C@@H](OC(=O)c2cc(O)c(O)c(O)c2)[C@H](OC(=O)c2cc(O)c(O)c(O)c2)[C@@H](O)[C@@H]1OC(=O)c1cc(O)c(O)c(O)c1)c1cc(O)c(O)c(O)c1` [1,2,4,6-tetra-O-galloyl-β-D-glucose] as the compound, how does the inhibition at 10 µM [1] read?
The inhibition at 10 µM was 80%.

For `O=c1c(O)c(-c2ccc(O)c(O)c2)oc2cc(O)cc(O)c12` [quercetin, reference compound], which inhibition at 10 µM [1] is on record?
The inhibition at 10 µM was 38%.

`O=C(OC[C@H]1O[C@@H](O)[C@H](OC(=O)c2cc(O)c(O)c(O)c2)[C@@H](OC(=O)c2cc(O)c(O)c(O)c2)[C@@H]1OC(=O)c1cc(O)c(O)c(O)c1)c1cc(O)c(O)c(O)c1` [2,3,4,6-tetra-O-galloyl-β-D-glucose] was tested. Which inhibition at 10 µM [1] did it give?
Its inhibition at 10 µM is 93%.

`O=C(O)c1cc(O)c(O)c(O)c1Oc1cc2c(c(O)c1O)-c1c(cc(O)c(O)c1O)C(=O)O[C@@H]1C(COC2=O)OC(O)C2OC(=O)c3cc(O)c(O)c(O)c3-c3c(cc(O)c(O)c3O)C(=O)O[C@H]21` (some centres unmarked) [Praecoxin A] was tested. Which inhibition at 10 µM [1] did it give?
Its inhibition at 10 µM is 74%.

Which “TEER reduction suppression ratio (%)” value (sample 10 μM, TNFα 40 ng/mL, IL-1β 20 ng/mL, IFNγ 10 ng/mL, 48 hours, Table 2) does the source give for Catechin [reference compound] here?
Its value is 15%.

How did the inhibition at 10 µM [2] turn out when `Oc1cc(O)c2c(c1)O[C@H](c1cc(O)c(O)c(O)c1)[C@@H](O)C2` [Gallocatechin, reference compound] was run?
The inhibition at 10 µM was 19%.

With `O=C(O[C@@H]1Cc2c(O)cc(O)cc2O[C@@H]1c1ccc(O)c(O)c1)c1cc(O)c(O)c(O)c1` [Epicatechin gallate] as the compound, how does the “Relative value of TEER reduction suppression ratio of gallate type compound (non-gallate type compound taken as 1)” value read?
Its value is 2.5.

What about the inhibition at 10 µM [2] of the same compound?
Its inhibition at 10 µM is 35%.

`O=C1OC[C@H]2OC(O)[C@@H]3OC(=O)c4cc(O)c(O)c(O)c4-c4c(cc(O)c(O)c4O)C(=O)O[C@H]3[C@@H]2OC(=O)c2cc(O)c(O)c(O)c2-c2c1cc(O)c(O)c2O` (some centres unmarked) [Pedunculagin] was tested. Which inhibition at 10 µM [1] did it give?
The inhibition at 10 µM was 72%.

`O=C(OC[C@H]1O[C@@H](OC(=O)c2cc(O)c(O)c(O)c2)[C@H](OC(=O)c2cc(O)c(O)c(O)c2)[C@@H](OC(=O)c2cc(O)c(O)c(O)c2)[C@@H]1O)c1cc(O)c(O)c(O)c1` [1,2,3,6-tetra-O-galloyl-β-D-glucose] was tested. Which inhibition at 10 µM [1] did it give?
The inhibition at 10 µM was 98%.

Which “Relative value of TEER reduction suppression ratio of gallate type compound (non-gallate type compound taken as 1)” value does the source give for `O=C(O[C@@H]1Cc2c(O)cc(O)cc2O[C@H]1c1cc(O)c(O)c(O)c1)c1cc(O)c(O)c(O)c1` [Gallocatechin gallate] here?
Its value is 3.2.

What about the inhibition at 10 µM [2] of the same compound?
The inhibition at 10 µM was 60%.

`Oc1cc(O)c2c(c1)O[C@H](c1ccc(O)c(O)c1)[C@H](O)C2` [Epicatechin, reference compound] was tested. Which inhibition at 10 µM [2] did it give?
Its inhibition at 10 µM is 14%.

With `O=C(O[C@H]1COC(=O)c2cc(O)c(O)c(O)c2-c2c(cc(O)c(O)c2O)C(=O)O[C@H]1C1OC(=O)c2cc(O)c(O)c(O)c2-c2c(O)c(O)c(O)c3c2C(=O)O[C@H]1[C@@H]3c1c(O)cc(O)c2c1OC(c1ccc(O)c(O)c1)C(O)C2)c1cc(O)c(O)c(O)c1` (some centres unmarked) [Stenophyllanin A, stenophyllanin A] as the compound, how does the “TEER reduction suppression ratio (%)” value [3] read?
The value was 96%.

How did the inhibition at 10 µM [1] turn out when `O=C(OC[C@H]1O[C@@H](OC(=O)c2cc(O)c(O)c(O)c2)[C@H](OC(=O)c2cc(O)c(O)c(O)c2)[C@@H](OC(=O)c2cc(O)c(O)c(O)c2)[C@@H]1OC(=O)c1cc(O)c(O)c(O)c1)c1cc(O)c(O)c(O)c1` [1,2,3,4,6-penta-O-galloyl-β-D-glucose] was run?
Its inhibition at 10 µM is 64%.

`O=C(O[C@@H]1COC(=O)c2cc(O)c(O)c(O)c2-c2c(cc(O)c(O)c2O)C(=O)O[C@H]1[C@@H]1OC(=O)c2cc(O)c(O)c(O)c2-c2c(O)c(O)c(O)c3c2C(=O)O[C@H]1[C@@H]3O)c1cc(O)c(O)c(O)c1` [Casuarinin] was tested. Which inhibition at 10 µM [1] did it give?
Its inhibition at 10 µM is 82%.

Which “TEER reduction suppression ratio (%)” value [3] does the source give for stenophyllanin B here?
The value was 126%.

For `O=C(O[C@H]1[C@@H]2OC(=O)c3cc(O)c(O)c(O)c3-c3c(cc(O)c(O)c3O)C(=O)OC[C@H]2OC(O)[C@@H]1OC(=O)c1cc(O)c(O)c(O)c1)c1cc(O)c(O)c(O)c1` (some centres unmarked) [Tellimagrandin I, tellimagrandin I], which “TEER reduction suppression ratio (%)” value [3] is on record?
The value was 65%.

`O=C(OC[C@H]1O[C@@H](OC(=O)c2cc(O)c(O)c(O)c2)[C@H](O)[C@@H](O)[C@@H]1OC(=O)c1cc(O)c(O)c(O)c1)c1cc(O)c(O)c(O)c1` [1,4,6-tri-O-galloyl-β-D-glucose] was tested. Which inhibition at 10 µM [1] did it give?
The inhibition at 10 µM was 56%.

`O=C1O[C@H]2[C@@H]3OC(=O)c4cc(O)c(O)c(O)c4-c4c(cc(O)c(O)c4O)C(=O)OC[C@H]2O[C@@H](OC(=O)c2cc(O)c(O)c(O)c2)[C@@H]3OC(=O)c2cc(O)c(O)c3c2[C@@H]2C1=CC(=O)[C@](O)(O3)C2(O)O` [Geranlin, geraniin] was tested. Which inhibition at 10 µM [1] did it give?
Its inhibition at 10 µM is 83%.
